In patent publication US9464110B2, “Acyl dipeptide derivative” (AJINOMOTO CO., INC., priority 2012, dated 2016):
≈ marks a conversion by molar mass, not a printed value. Where a SMILES comes first, the peptide text is derived from it. The star is where a group is joined. Decanoyl = CCCCCCCCCC(=O)*

Columns and labels:
Propionibacterium acnes = experiment: minimal growth inhibitory concentration (MIC) test, agar dilution; assay type: cell-based; conditions: Cutibacterium acnes; GAM agar medium, 35° C., 48 hr anaerobic culture; read-out: minimal growth inhibitory concentration against Propionibacterium acnes
Description: (§1) The compound of Synthetic Example 1 was subjected to a minimal growth inhibitory concentration (MIC) test against Propionibacterium acnes (P. acnes) and Trichophyton mentagrophytes (T. mentagrophytes). The test method is shown below. (1) Preparation of Test Bacterial Culture Propionibacterium acnes: Anaerobically cultured in a GAM agar medium at 35° C. for 48 hr. A part thereof was transplanted into a GAM bouillon medium, and anaerobically cultured at 35° C. for 24 hr. The culture medium was diluted with GAM bouillon medium to adjust to about 10^6 cells/mL and used as a test bacterial culture. Trichophyton mentagrophytes: Test bacteria were cultured in a Sabouraud glucose agar medium at 25° C. for 7-14 days, spore and hypha pick were scraped with a platinum loop, suspended in polysorbate 80 0.05% sterile saline and ground in a homogenizer. The solution was filtered through sterile gauze folded in four, and diluted with polysorbate 80 0.05% sterile saline to adjust to about 10^6 cells/mL and used as a test bacterial culture. (2) Preparation of Antimicrobial Agent Dilution Solution A sample was diluted with sterile purified water to prepare a 100000-1000 μg (active ingredient)/mL dilution series. (3) Preparation of Antimicrobial Agent-Added Agar Medium The agar medium was dispensed by 9.0 mL into a test tube and, after autoclave sterilization, and incubated in a molten state at 50° C. […]

[1] = test system: Trichophyton mentagrophytes; experiment: as above; assay type: cell-based; conditions: 168 h, Sabouraud glucose agar medium, 25° C., 7 days, read-out: minimal growth inhibitory concentration against Trichophyton mentagrophytes
Description: as §1

- MIC (Propionibacterium acnes): 2000 to 3000 µg/mL (≈ 5.46 to 8.19 mM)
- MIC [1]: 1000 to 1500 µg/mL (≈ 2.73 to 4.09 mM)
SMILES: CCCCCCCCCC(=O)N1CCC[C@H]1C(=O)N1CCC[C@H]1C(=O)O [Synthetic Example 1, decanoyl prolylproline] (Decanoyl-Pro-Pro-OH)
